According to patent US20030176511A1, “Compositions and methods for treating cardiovascular disorders” (priority 2000, published 2003):

How the values were obtained:
α-tocopheroxyl radical = assay: Tocopheroxyl radical attenuating ability (TRAA); type: biochemical; conditions: kobs in presence (+) or absence (−) of test compound
[1] = test system: tocopherol-mediated peroxidation (TMP); assay: Anti-TMP index; type: biochemical
[2] = test system: restenosis in rabbit abdominal aorta after arterial balloon injury; assay: Intimal thickening (intima and media ratio) in rabbit aorta after arterial balloon injury; type: in vivo; conditions: rabbits, 0.02% PDA474 in chow for 9 weeks
Description: The intima and media ratio (IMR) was determined by tracing the intimal and medial areas, and dividing their respective total pixel numbers. Higher IMR indicate larger lesions. *Denotes a statistically significant difference with p<0.05.
PDA474 was synthesised and supplied in pure form (99%) by Polysciences, Inc. (400 Valley Road, Warrington, Pa. 18976, USA).
Twelve New Zealand White rabbits were fed a standard rabbit chow (100 g per day) with (n=6) or without (n=6) 0.02 weight % PDA474 (in dry powder form) for 9 weeks. The initial dosage was based on in vitro studies and other useful dosage amounts can be easily derived using a similar approach.
At the end of week 3, the abdominal aorta of all rabbits was injured by ABI. At the end of week 9, the infra-renal abdominal aorta was removed, fixed in 4% buffered formalin, embedded in paraffin, sectioned and stained with Verhoeff Hematoxylin. The intima and media ratio (IMR) was then determined by tracing the intimal and medial areas, and dividing their respective total pixel numbers. Higher IMR indicate larger lesions.

[3] = Lipids and antioxidants in plasma lipoprotein fractions (size exclusion FPLC) of apoE−/− mice; type: in vivo; conditions: pooled plasma, 1% w/w probucol, 24 weeks
Description: Plasma was collected from individual mice, pooled, diluted 1:10 with buffer used for FPLC and 300 μL subjected to size exclusion chromatography. Chromatograms shown are representative of two analyses of independent pooled plasma samples. The horizontal bars indicate the corresponding fractions collected for each lipoprotein pool. Plasma was obtained from control and probucol mice and aliquots frozen for subsequent determination of lipids. Separate aliquots were acidified with metaphosphoric acid (5%) to stabilize vitamin C prior to freezing and storage at −80° C. The remainder was pooled appropriately and used for ex vivo oxidation initiated by the peroxyl radical generator AAPH and lipoprotein separation by FPLC with UV280nm detection, as described in J Lipid Res. 1 999;40:1104-1112. […] Two consecutive separations each employing 300 μL undiluted plasma were carried out. The corresponding eluents from both injections were collected, pooled according to fractions corresponding to very low-density lipoprotein (VLDL), LDL, and HDL plus mouse serum albumin (see FIG. 3) and then extracted and analysed for lipids and antioxidants.

[4] = test system: lipoprotein oxidation in the vessel wall; assay: Aortic lipids, oxidised lipids and antioxidants in apoE−/− mice (HPLC of aortic homogenates); type: in vivo
Description: Male C57BL/6J mice, homozygous for the disrupted apoE gene (apoE−/−) were fed standard chow (Lab-Feed, Sydney, Australia) until aged 10 weeks. […] After bleeding, mice were gravity-perfused for 5 min with DPBS containing 20 μM BHT and 1 mM EDTA (Buffer A) and aortas removed as described in Letters JM, et al (1999). Briefly, hearts, ascending and descending aortas (past the femoral junction) were excised and carefully cleaned. […] Once cleaned, aortas were separated from the heart taking care to include all aortic material while avoiding heart tissue. To obtain sufficient material for HPLC analysis (i.e., 30-40 mg wet weight tissue) it was necessary to pool 7-8 aortas. Separate pools of aortas were prepared for both groups and then immediately frozen in Buffer A and stored at −80° C. until analyses. Pooled aortas were snap frozen in liquid nitrogen, pulverised, resuspended in Buffer A, homogenised and then either treated with metaphosphoric acid (for ascorbate) or extracted and the hexane fraction analysed for lipid-soluble antioxidants, cholesterol (C), choleseteryl esters (CE), lipid hydroperoxides (LOOH) and cholesteryl ester hydroxides (CE-OH) by HPLC as described in Methods Enzymol. 1994;233:469489. LOOH and CE-OH were measured as markers of lipoprotein lipid oxidation, as they are the primary and major oxidation products formed when lipoproteins from apoE−/− mice undergo oxidation. […] All compounds were quantified by peak area comparison with authentic standards, and protein determined.

[5] = Plasma lipids and antioxidants in apoE−/− mice; type: in vivo
Description: Male C57BL/6J mice, homozygous for the disrupted apoE gene (apoE−/−) were fed standard chow (Lab-Feed, Sydney, Australia) until aged 10 weeks. […] Separate aliquots were acidified with metaphosphoric acid (5%) to stabilize vitamin C prior to freezing and storage at −80° C. The remainder was pooled appropriately and used for ex vivo oxidation initiated by the peroxyl radical generator AAPH and lipoprotein separation by FPLC with UV280nm detection, as described in J Lipid Res. 1 999;40:1104-1112. Lipid-soluble antioxidants and lipids were quantified by HPLC as described in FASEB J. 1999;13:667-675. For ascorbate analysis, frozen acidified samples were thawed, diluted with DPBS to adjust the pH to 7.4 and then immediately subjected to HPLC. Plasma triglycerides were determined enzymatically (Boehringer, Mannheim, Germany).

[6] = test system: atherosclerotic lesions in apoE−/− mice; assay: Atherosclerotic lesion cross-section areas (morphometry) in apoE−/− mice; type: in vivo; conditions: lesion area of probucol group relative to controls
Description: Male C57BL/6J mice, homozygous for the disrupted apoE gene (apoE−/−) were fed standard chow (Lab-Feed, Sydney, Australia) until aged 10 weeks. […] The high fat diet (control and probucol-supplemented) was prepared, according to the specifications of the Harlan Teklad diet TD88137. […] After bleeding, mice were gravity-perfused for 5 min with DPBS containing 20 μM BHT and 1 mM EDTA (Buffer A) and aortas removed as described in Letters JM, et al (1999). Briefly, hearts, ascending and descending aortas (past the femoral junction) were excised and carefully cleaned. […] Once cleaned, aortas were separated from the heart taking care to include all aortic material while avoiding heart tissue. To obtain sufficient material for HPLC analysis (i.e., 30-40 mg wet weight tissue) it was necessary to pool 7-8 aortas. Separate pools of aortas were prepared for both groups and then immediately frozen in Buffer A and stored at −80° C. until analyses. Lesions were assessed at four different sites along the aorta, in the aortic root, in the aortic arch, the descending thoracic and in the proximal abdominal aorta, and cross-sections (2-3 μm thick) were prepared and stained with Weigert's hematoxylin-van Gieson.

[7] = test system: coronary restenosis after BA; conditions: probucol given alone, compared to the placebo, MVP trial; cited from earlier work
plasma lipids = assay: Ex vivo AAPH-induced oxidation of plasma from apoE−/− mice; type: in vivo; conditions: plasma from probucol-treated mice, 5 mM AAPH, 37° C.
Description: Pooled plasma obtained from control (open symbols) or probucol-treated (closed symbols) mice was exposed to 5 mM of the aqueous peroxyl radical generator AAPH and incubated under air at 37° C. […] Data shown are mean±SD of a single oxidation experiment performed in triplicate using pooled plasma. Where error bars are not shown, error is smaller than the symbol.
Plasma was obtained from control and probucol mice and aliquots frozen for subsequent determination of lipids. Separate aliquots were acidified with metaphosphoric acid (5%) to stabilize vitamin C prior to freezing and storage at −80° C. The remainder was pooled appropriately and used for ex vivo oxidation initiated by the peroxyl radical generator AAPH and lipoprotein separation by FPLC with UV280nm detection, as described in J Lipid Res. 1 999;40:1104-1112.
Enhanced resistance of plasma lipoproteins to oxidation is often used as a measure of antioxidant efficacy. Therefore, we examined AAPH-induced oxidation of pooled plasma from control and treated animals. […] These observations can be explained readily on the basis of tocopherol-mediated peroxidation.

[8] = test system: atherosclerosis/restenosis in ballooned New Zealand White rabbits; assay: Atherosclerosis/restenosis in cholesterol-fed, ballooned New Zealand White rabbits; type: in vivo; conditions: 2% cholesterol diet with 1% probucol for 6 weeks
Description: Aortic endothelial denudation was performed at week 3 by withdrawing an inflated 3F Fogarty balloon embolectomy catheter three times down the length of the aorta. Plasma was obtained from animals as described in Example 1 at the start and end of the study. At the end of the study period, individual aortas were removed and prepared for HPLC analysis as in Example 1. Lipids and antioxidants including probucol and its metabolites, bisphenol and diphenoquinone, were analyzed by RP-HPLC as described previously. Aortas designated for histology were perfusion-fixed with 4% (v/v) formaldehyde and transferred into formalin. Cross-sections (2-3 μm thick) were prepared and stained with Weigert's hematoxylin-van Gieson, and the intima to media ratio determined for three sections.

[9] = compared to controls, per protein

Cc1cc(C(C)(C)C)c(O)c(C(C)(C)C)c1 [BHT]
TRAA (decay of α-tocopheroxyl radical; kobs(+)/kobs(−)) (α-tocopheroxyl radical): Immediate decay
Anti-TMP index [1]: 8-10

CC(C)(C)c1cc(SSc2cc(C(C)(C)C)c(O)c(C(C)(C)C)c2)cc(C(C)(C)C)c1O [PDA474]
lower IMR in drug-treated animals vs control [2]: 34%
intima and media ratio (IMR) ([2]; ABI at end of week 3, mean±SEM, n=6): 0.76±0.13

CC(C)(Sc1cc(C(C)(C)C)c(O)c(C(C)(C)C)c1)Sc1cc(C(C)(C)C)c(O)c(C(C)(C)C)c1 [Probucol]
-TOH in HDL fraction ([3]; HDL plus mouse serum albumin): 1.4
C20:4 in HDL fraction ([3]; HDL plus mouse serum albumin): 24.0
C in HDL fraction ([3]; HDL plus mouse serum albumin): 0.12
Total CoQ in HDL fraction ([3]; HDL plus mouse serum albumin): 0.1
-TOH in LDL fraction ([3]; LDL): 7.8
C20:4 in LDL fraction ([3]; LDL): 50.4
C in LDL fraction ([3]; LDL): 0.96
Total CoQ in LDL fraction ([3]; LDL): 0.4
-TOH in VLDL fraction ([3]; VLDL): 0.56
C18:2 in VLDL fraction ([3]; VLDL): 340
Total CoQ in VLDL fraction ([3]; VLDL): 0.1
drug metabolised to bisphenol or diphenoquinone, aorta ([4]; aorta): ~11%
decrease of aortic concentration of C [4, 9]: 5.6 fold
decrease of aortic concentration of total CoQ (ubiquinones plus ubiquinols) [4, 9]: 2.5 fold
decrease of aortic concentration of vitamin E [4, 9]: 2.9 fold
Plasma Triglyceride ([5]; apoE−/− mice, probucol-supplemented diet, 24 weeks): 0.4 ± 0.0 mM
drug converted into bisphenol or diphenoquinone, plasma ([5]; plasma): ~8%
increase of plasma ascorbate ([5]; plasma, probucol treated vs control mice): ~1.4 fold
Treatment effect, Abdominal Aorta [6]: 10%
Treatment effect, Arch [6]: 44%
Treatment effect, Descending Thoracic Aorta [6]: 15%
reduction of angiographic lumen loss [7]: 68%
reduction of need for repeat angioplasty at 6 months [7]: 58%
reduction of restenosis rate per segment [7]: 47%
probucol level during the oxidation period (plasma lipids): remained unchanged
onset and initial rate of accumulation of CE-O(O)H (plasma lipids; vs control plasma): delayed and decreased respectively
proportion of aortic lipids that was oxidized [8]: not affected
atherosclerosis ([8]; aortic denudation at week 3): significantly decreased atherosclerosis
content of plasma and aortic lipids, and absolute amounts of oxidized lipids ([8]; vs controls): significantly decreased
